From patent publication US10745377B2, “Piperidine or piperazine linked imidazole and triazole derivatives and methods of use” (MERCK SHARP & DOHME CORP., priority 2013, dated 2020)

Experiments:
Type in all cases: biochemical
CYP2C19 = target: T1, CYP2C19 (Homo sapiens, UniProt P33261); assay: Cocktail assay for CYPs in human liver microsomes: CYP2C19 (mephenytoin 4′-hydroxylation); details: human liver microsomes 0.1 mg/mL, 30 μM mephenytoin, 10 min at 37° C., 6 concentrations up to 10 μM; read-out: IC50 (nM) CYP2C19
T1 construct: 0.1 mg/mL protein human liver microsomes (BD Gentest); tissue BD Gentest; host or cells: human liver microsomes
T1 sequence (P33261 whole entry): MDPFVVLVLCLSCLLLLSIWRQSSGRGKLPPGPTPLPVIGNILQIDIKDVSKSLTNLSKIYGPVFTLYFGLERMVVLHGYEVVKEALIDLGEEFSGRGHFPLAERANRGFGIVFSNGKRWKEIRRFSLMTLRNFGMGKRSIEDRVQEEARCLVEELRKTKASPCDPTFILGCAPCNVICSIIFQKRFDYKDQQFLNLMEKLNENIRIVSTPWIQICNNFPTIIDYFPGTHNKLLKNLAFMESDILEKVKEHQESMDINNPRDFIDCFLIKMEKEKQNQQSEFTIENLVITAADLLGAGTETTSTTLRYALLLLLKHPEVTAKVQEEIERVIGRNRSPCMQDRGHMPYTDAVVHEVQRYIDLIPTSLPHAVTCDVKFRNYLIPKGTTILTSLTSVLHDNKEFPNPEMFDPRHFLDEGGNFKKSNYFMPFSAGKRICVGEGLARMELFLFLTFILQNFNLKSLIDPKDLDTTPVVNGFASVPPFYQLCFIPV
Procedure: (§1) Determination of IC50 in a Cocktail Assay for CYPs 1A2, 2C9, 2C19, 2D6 and 3A4
(§2) This assay was performed in a standard 96-well plate design. […] The incubation substrate mix contains 10 μM phenacetin (1A2), 5 μM diclofenac (2C9), 30 μM mephenytoin (2C19), 5 μM dextromethorphan (2D6) and 2 μM midazolam (3A4), 0.1 mg/mL protein human liver microsomes (BD Gentest), 1 mM NAPDH, 3.3 mM MgCl2 and 100 mM potassium phosphate buffer (pH 7.4). The production of the metabolite of each probe substrate was determined after incubation for 10 min at 37° C. Quantitation of the metabolite peak area ratio against an internal standard (tolbutamide) was determined by LC/MS/MS analysis following acetonitrile treatment of the incubations.
(§3) Samples were analyzed in the MRM mode with a SCIEX API-4000 mass spectrometer (Applied Biosystems, Foster City, Calif.), with a Shimadzu LC-20 AD pump (Shimadzu corporation, Kyoto, JP) and a CTC PAL autosampler (Agilent Technologies, Switzerland). A Phenomenex, Luna, 5 μm, 100 A, 2.00×30 mm HPLC column was used for the separation. The mobile phases were: (A) 0.1% formic acid in water and (B) 0.1% formic acid in acetonitrile. The binary gradient was as follows.
(§4) The mass spectrum parameters were as follows:
(§5) The LC/MS/MS parameters for the analytes were as follows.
(§6) The peak area ratio of the analyte to the internal standard was used to quantify the metabolite. The values of peak area ratios in the presence of test compound were compared to those of maximum or minimum controls and were expressed as % inhibition by interpolating between the maximum and minimum peak area ratios. Incubations with no inhibitor were defined as the maxima.
(§7) The following equation was used to calculate the % inhibition: [1−[(X−Low control)/(High control−Low control)]]*100
(§8) For the IC50 calculation, SigmaPlot was used to plot the mean % inhibition versus the test compound concentrations and for non-linear regression analysis of the data. Depending on the range of data points defining the inhibition curve, the data may have been fit to the 4-parameter logistic equation.

CYP3A4 = target: T2, CYP3A4 (Homo sapiens, UniProt P08684); assay: Cocktail assay for CYPs in human liver microsomes: CYP3A4 (midazolam 1′-hydroxylation); details: human liver microsomes 0.1 mg/mL, 2 μM midazolam, 10 min at 37° C., 6 concentrations up to 10 μM; read-out: IC50 (nM) CYP3A4
T2 construct: 0.1 mg/mL protein human liver microsomes (BD Gentest); tissue BD Gentest; host or cells: human liver microsomes
T2 sequence (P08684 whole entry): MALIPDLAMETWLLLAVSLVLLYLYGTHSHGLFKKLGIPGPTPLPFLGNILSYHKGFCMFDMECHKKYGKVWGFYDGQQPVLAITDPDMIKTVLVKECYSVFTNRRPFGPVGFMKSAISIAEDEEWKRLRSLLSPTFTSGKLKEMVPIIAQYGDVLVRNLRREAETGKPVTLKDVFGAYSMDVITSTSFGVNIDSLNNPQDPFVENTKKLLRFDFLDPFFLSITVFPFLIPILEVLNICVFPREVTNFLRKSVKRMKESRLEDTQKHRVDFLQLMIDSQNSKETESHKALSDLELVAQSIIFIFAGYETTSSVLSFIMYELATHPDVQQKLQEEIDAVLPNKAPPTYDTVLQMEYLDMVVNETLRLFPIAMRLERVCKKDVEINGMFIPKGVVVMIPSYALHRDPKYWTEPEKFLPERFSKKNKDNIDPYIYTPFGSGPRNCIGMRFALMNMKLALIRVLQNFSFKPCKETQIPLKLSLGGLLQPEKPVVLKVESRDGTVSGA
Procedure: as §1, §2, §3, §4, §5, §6, §7, §8

CYP2D6 = target: T3, CYP2D6 (Homo sapiens, UniProt P10635); assay: Cocktail assay for CYPs in human liver microsomes: CYP2D6 (dextromethorphan O-demethylation); details: human liver microsomes 0.1 mg/mL, 5 μM dextromethorphan, 10 min at 37° C., 6 concentrations up to 10 μM; read-out: IC50 (nM) CYP2D6
T3 construct: 0.1 mg/mL protein human liver microsomes (BD Gentest); tissue BD Gentest; host or cells: human liver microsomes
T3 sequence (P10635 whole entry): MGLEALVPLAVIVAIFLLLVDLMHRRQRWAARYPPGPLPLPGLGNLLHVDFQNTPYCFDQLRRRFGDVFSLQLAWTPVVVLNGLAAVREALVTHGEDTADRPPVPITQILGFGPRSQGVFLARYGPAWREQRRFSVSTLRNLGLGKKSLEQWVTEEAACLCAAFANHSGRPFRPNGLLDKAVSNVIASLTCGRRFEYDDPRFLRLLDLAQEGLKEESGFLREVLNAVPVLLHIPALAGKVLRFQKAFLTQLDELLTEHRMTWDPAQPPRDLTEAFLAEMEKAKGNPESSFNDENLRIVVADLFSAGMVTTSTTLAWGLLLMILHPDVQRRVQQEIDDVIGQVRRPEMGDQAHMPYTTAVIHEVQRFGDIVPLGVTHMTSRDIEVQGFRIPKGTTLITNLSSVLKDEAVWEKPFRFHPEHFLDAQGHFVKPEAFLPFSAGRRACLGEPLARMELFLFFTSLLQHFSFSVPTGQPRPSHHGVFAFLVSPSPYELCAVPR

CYP1A2 = target: T4, CYP1A2 (Homo sapiens, UniProt P05177); assay: Cocktail assay for CYPs in human liver microsomes: CYP1A2 (phenacetin O-deethylation); details: human liver microsomes 0.1 mg/mL, 10 μM phenacetin, 10 min at 37° C., 6 concentrations up to 10 μM; read-out: IC50 (nM) CYP1A2
T4 construct: 0.1 mg/mL protein human liver microsomes (BD Gentest); tissue BD Gentest; host or cells: human liver microsomes
T4 sequence (P05177 1-516): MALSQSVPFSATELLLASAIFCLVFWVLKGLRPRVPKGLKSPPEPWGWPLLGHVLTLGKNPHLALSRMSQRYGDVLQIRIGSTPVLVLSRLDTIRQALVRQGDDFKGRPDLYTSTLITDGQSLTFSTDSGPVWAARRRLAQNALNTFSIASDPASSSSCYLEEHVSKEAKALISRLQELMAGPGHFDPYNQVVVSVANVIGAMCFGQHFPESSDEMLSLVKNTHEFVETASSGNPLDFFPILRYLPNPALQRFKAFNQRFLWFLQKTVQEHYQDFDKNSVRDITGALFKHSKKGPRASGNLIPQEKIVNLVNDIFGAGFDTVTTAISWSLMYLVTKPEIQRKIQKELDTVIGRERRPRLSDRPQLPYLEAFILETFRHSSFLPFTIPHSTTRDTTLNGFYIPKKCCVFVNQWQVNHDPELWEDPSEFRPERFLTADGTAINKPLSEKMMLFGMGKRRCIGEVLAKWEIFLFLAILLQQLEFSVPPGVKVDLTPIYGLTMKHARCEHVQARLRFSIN

CYP2C9 = target: T5, CYP2C9 (Homo sapiens, UniProt P11712); assay: Cocktail assay for CYPs in human liver microsomes: CYP2C9 (diclofenac 4′-hydroxylation); details: human liver microsomes 0.1 mg/mL, 5 μM diclofenac, 10 min at 37° C., 6 concentrations up to 10 μM; read-out: IC50 (nM) CYP2C9
T5 construct: 0.1 mg/mL protein human liver microsomes (BD Gentest); tissue BD Gentest; host or cells: human liver microsomes
T5 sequence (P11712 whole entry): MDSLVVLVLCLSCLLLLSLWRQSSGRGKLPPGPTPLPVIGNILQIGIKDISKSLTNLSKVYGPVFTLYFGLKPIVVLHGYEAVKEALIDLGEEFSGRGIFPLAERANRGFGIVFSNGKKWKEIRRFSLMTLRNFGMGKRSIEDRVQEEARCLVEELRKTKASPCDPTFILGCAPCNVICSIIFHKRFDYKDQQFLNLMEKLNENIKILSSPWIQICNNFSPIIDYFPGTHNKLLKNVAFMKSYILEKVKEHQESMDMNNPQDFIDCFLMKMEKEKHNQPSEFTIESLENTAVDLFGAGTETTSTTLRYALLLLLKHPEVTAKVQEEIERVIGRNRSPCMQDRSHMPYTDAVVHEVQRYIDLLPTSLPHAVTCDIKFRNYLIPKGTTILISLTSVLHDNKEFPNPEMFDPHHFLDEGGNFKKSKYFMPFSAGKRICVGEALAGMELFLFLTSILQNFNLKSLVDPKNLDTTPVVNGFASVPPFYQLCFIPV
Procedure: as §1, §2, §3, §4, §5, §6, §7, §8

Structure (SMILES)	IC50 (CYP2C19)	IC50 (CYP3A4)	IC50 (CYP2D6)	IC50 (CYP1A2)	IC50 (CYP2C9)
CC(c1ccccc1-c1ccc(F)cc1)n1cncc1CN1CCC(F)(F)C1 (stereo not shown) [Compound 16, 5-((3,3-difluoropyrrolidin-1-yl)methyl)-1-(1-(4′-fluoro-[1,1′-biphenyl]-2-yl)ethyl)-1H-imidazole]	4270 nM	18 nM	1930 nM	> 10000 nM	7470 nM
CC(c1ccccc1-c1ccc(F)cc1)n1cncc1CN1CCC(O)C1 (stereo not shown) [Compound 17, 1-((1-(1-(4′-fluoro-[1,1′-biphenyl]-2-yl)ethyl)-1H-imidazol-5-yl)methyl) pyrrolidin-3-ol]	> 10000 nM	29 nM	4040 nM	> 10000 nM	> 10000 nM
CC(c1ccccc1-c1ccc(F)cc1)n1cncc1CN1CCCNC(=O)C1 (stereo not shown) [Compound 18, 4-((1-(1-(4′-fluoro-[1,1′-biphenyl]-2-yl)ethyl)-1H-imidazol-5-yl)methyl)-1,4-diazepan-2-one]	4790 nM	29 nM	> 10000 nM	> 10000 nM	> 10000 nM
C[C@H](c1ccc(C#N)cc1)n1cncc1CN1CCC2(CC1)C(=O)NCN2c1ccccc1 [Compound 19, (R)-4-(1-(5-((4-oxo-1-phenyl-1,3,8-triazaspiro[4.5]decan-8-yl)methyl)-1H-imidazol-1-yl)ethyl) benzonitrile]	2420 nM	50 nM	9970 nM	> 10000 nM	1660 nM
CC(c1ccccc1-c1ccc(F)cc1)n1cncc1CN1CCS(=O)(=O)CC1 (stereo not shown) [Compound 20, 4-((1-(1-(4′-fluoro-[1,1′-biphenyl]-2-yl)ethyl)-1H-imidazol-5-yl)methyl) thiomorpholin 1,1-dioxide]	9910 nM	35 nM	> 10000 nM	> 10000 nM	> 10000 nM
C[C@H](c1ccc(C#N)cc1)n1cncc1CN1CCC(c2nc3ccccc3o2)CC1 [Compound 21, (R)-4-(1-(5-((4-(benzo[d]oxazol-2-yl)piperidin-1-yl)methyl)-1H-imidazol-1-yl)ethyl) benzonitrile]	8700 nM	35 nM	7520 nM	> 10000 nM	4080 nM
C[C@H](c1ccc(C#N)cc1)n1cncc1CN1CCC(c2nc3ccccc3s2)CC1 [Compound 22, (R)-4-(1-(5-((4-(benzo[d]thiazol-2-yl)piperidin-1-yl)methyl)-1H-imidazol-1-yl)ethyl) benzonitrile]	4690 nM	26 nM	3210 nM	> 10000 nM	1760 nM
C[C@H](c1ccc(F)cc1)n1cncc1CN1CCN(c2nc3ccccc3o2)CC1 [Compound 23, (R)-2-(4-((1-(1-(4-fluorophenyl)ethyl)-1H-imidazol-5-yl)methyl)piperazin-1-yl)benzo[d]oxazole]	3160 nM	7 nM	2920 nM	> 10000 nM	4370 nM
C[C@H](c1ccc(C#N)cc1)n1cncc1CN1CCN(c2nc3ccccc3o2)CC1 [Compound 24, (R)-4-(1-(5-((4-(benzo[d]oxazol-2-yl)piperazin-1-yl)methyl)-1H-imidazol-1-yl)ethyl) benzonitrile]	2260 nM	11 nM	3080 nM	> 10000 nM	3430 nM
N#Cc1ccc(C2(n3cncc3CN3CCN(c4nc5ccccc5o4)CC3)CC2)cc1 [Compound 25, 4-(1-(5-((4-(benzo[d]oxazol-2-yl)piperazin-1-yl)methyl)-1H-imidazol-1-yl)cyclopropyl) benzonitrile]	> 10000 nM	28 nM	2910 nM	> 10000 nM	9590 nM
CC(C)OCCn1cncc1CN1CCN(c2nc3ccccc3o2)CC1 [Compound 26, 2-(4-((1-(2-isopropoxyethyl)-1H-imidazol-5-yl)methyl)piperazin-1-yl)benzo[d]oxazole]	> 10000 nM	21 nM	1040 nM	> 10000 nM	> 10000 nM
CC(C)C(C)n1cncc1CN1CCN(c2nc3ccccc3o2)CC1 (stereo not shown) [Compound 27, 2-(4-((1-(3-methylbutan-2-yl)-1H-imidazol-5-yl)methyl)piperazin-1-yl)benzo[d]oxazole]	> 10000 nM	9 nM	1760 nM	> 10000 nM	> 10000 nM
C[C@H](c1ccc(C#N)cc1)n1cncc1CN1CCN(c2nc3cccc(F)c3o2)CC1 [Compound 28, (R)-4-(1-(5-((4-(7-fluorobenzo[d]oxazol-2-yl)piperazin-1-yl)methyl)-1H-imidazol-1-yl)ethyl)benzonitrile]	3570 nM	10 nM	1110 nM	> 10000 nM	3870 nM
Cc1cccc2nc(N3CCN(Cc4cncn4[C@H](C)c4ccc(C#N)cc4)CC3)oc12 [Compound 29, (R)-4-(1-(5-((4-(7-methylbenzo[d]oxazol-2-yl)piperazin-1-yl)methyl)-1H-imidazol-1-yl)ethyl)benzonitrile]	4970 nM	20 nM	2770 nM	> 10000 nM	2490 nM
C[C@H](c1ccc(C#N)cc1)n1cncc1CN1CCN(c2nc3ccc(F)cc3o2)CC1 [Compound 30, (R)-4-(1-(5-((4-(6-fluorobenzo[d]oxazol-2-yl)piperazin-1-yl)methyl)-1H-imidazol-1-yl)ethyl)benzonitrile]	8400 nM	7 nM	1620 nM	> 10000 nM	5550 nM
C[C@H](c1ccc(C#N)cc1)n1cncc1CN1CCN(c2nc3ccc(F)c(F)c3o2)CC1 [Compound 31, (R)-4-(1-(5-((4-(6,7-difluorobenzo[d]oxazol-2-yl)piperazin-1-yl)methyl)-1H-imidazol-1-yl)ethyl) benzonitrile]	3740 nM	7 nM	2870 nM	> 10000 nM	2320 nM
CC(C1CCOCC1)n1cncc1CN1CCN(c2nc3ccccc3o2)CC1 (stereo not shown) [Compound 32, 2-(4-((1-(1-(tetra-hydro-2H-pyran-4-yl)ethyl)-1H-imidazol-5-yl)methyl)piperazin-1-yl)benzo[d] oxazole]	> 10000 nM	24 nM	> 10000 nM	> 10000 nM	> 10000 nM
c1ccc(CCn2cncc2CN2CCN(c3nc4ccccc4o3)CC2)nc1 [Compound 33, 2-(4-((1-(2-(pyridin-2-yl)ethyl)-1H-imidazol-5-yl)methyl)piperazin-1-yl)benzo[d] oxazole]	≥ 10000 nM	35 nM	2090 nM	> 10000 nM	6520 nM
CC(c1ccc(S(C)(=O)=O)cc1)n1cncc1CN1CCN(c2nc3ccccc3o2)CC1 (stereo not shown) [Compound 34, 2-(4-((1-(1-(4-(methylsulfonyl)phenyl)ethyl)-1H-imidazol-5-yl)methyl)piperazin-1-yl)benzo [d]oxazole]	≥ 10000 nM	8 nM	2520 nM	> 10000 nM	≥ 10000 nM
CC(C1CCOCC1)n1cncc1CN1CCN(c2nc3ccc(F)c(F)c3o2)CC1 (stereo not shown) [Compound 35, 6,7-difluoro-2-(4-((1-(1-(tetrahydro-2H-pyran-4-yl)ethyl)-1H-imidazol-5-yl)methyl)piperazin-1-yl) benzo[d]oxazole]	> 10000 nM	4 nM	> 10000 nM	> 10000 nM	> 10000 nM
CC(Cn1cncc1CN1CCN(c2nc3ccccc3o2)CC1)C(F)(F)F (stereo not shown) [Compound 36, 2-(4-((1-(3,3,3-trifluoro-2-methylpropyl)-1H-imidazol-5-yl)methyl)piperazin-1-yl)benzo[d]oxazole]	4260 nM	45 nM	1720 nM	> 10000 nM	6980 nM
Fc1ccc(CCn2cncc2CN2CCN(c3nc4ccccc4o3)CC2)cc1 [Compound 37, 2-(4-((1-(4-fluorophenethyl)-1H-imidazol-5-yl)methyl)piperazin-1-yl)benzo[d]oxazole]	5380 nM	8 nM	1410 nM	> 10000 nM	4360 nM
COc1ccc2nc(N3CCN(Cc4cncn4[C@H](C)c4ccc(C#N)cc4)CC3)sc2c1 [Compound 38, (R)-4-(1-(5-((4-(6-methoxybenzo[d]thiazol-2-yl)piperazin-1-yl)methyl)-1H-imidazol-1-yl)ethyl)benzonitrile]	4720 nM	31 nM	3690 nM	> 10000 nM	6470 nM
